Test results taken from patent publication US9265189B2, “Method for reducing damage by harmful organisms in corn cultivation” (SUMITOMO CHEMICAL COMPANY, LIMITED, priority 2012, dated 2016).

Tested on: Agriotes sordidus
Assay: Field test, corn plants damaged by Agriotes sordidus after in-furrow spray (Example 3)
Assay type: in vivo
Conditions: Example section 3: clothianidin 25 g/ha, in-furrow spray of Dantop 50WG aqueous suspension 100 L/ha, corn KUBRIK, 34 days after application; non-treatment section 34.6
Experimental: A cultivated land was ditched at intervals of 75 cm to a depth of 3 cm from the soil surface, and the furrow was seeded with corn (Zea Mays, variety name: KUBRIK; hybrid variety) at intervals of 17 cm. A seeding density of corn was 78000 seeds/ha. Then, the furrow was spray-treated with an aqueous suspension of a clothianidin water dispersible granule (using a 50% water dispersible granule, trade name: Dantop 50WG, manufactured by Philagro) at 100 L/ha so that the application amount of clothianidin was 25 g/ha, and then a soil on the side of the furrow was gathered together to close the furrow. This was defined as an example section 3. For comparison, a non-treatment section, which was seeded with corn without application of a clothianidin water dispersible granule, was provided. In any section, four places were arranged by a randomized block method, with one place having an area of 54 m^2 (18 m×3 m). 34 days after application of the clothianidin water dispersible granule, the number of plants of corn damaged by Agriotes sordidus in each of the example section 3 and the non-treatment section was investigated, a damage plant rate was calculated in accordance with the following equation, and then an average damage plants rate of the four investigation sections was determined. Damage plant rate(%)=[(number of plants of corn damaged)/(number of plants of corn seeded)]×100

For `CN/C(=N\[N+](=O)[O-])NCc1cnc(Cl)s1` [clothianidin], the “Damage plant rate (%)” value was 1.8%.
